Data on 23 compounds can be found in ChEMBL document CHEMBL4390673, “Identification of Novel Coumestan Derivatives as Polyketide Synthase 13 Inhibitors against Mycobacterium tuberculosis. Part II” (J Med Chem, 2019).

Values after ≈ are worked out from the molar mass of the structure shown. Active and inactive are the calls of the source. No cut-off for these calls is given here. Where only a bound is given, the exact number is not on record here.

Data set [1] is described as follows: in vitro. The following applies: human, liver microsomes.
Description: Stability in human liver microsomes assessed as parent compound remaining measured after 60 mins
Data set [2] is described as follows: in vitro. The following applies: human, liver microsomes. This is another data set of the same source.
Description: Intrinsic clearance in human liver microsomes
Data set [3] in a line: in vitro. The following applies: human, liver microsomes. The source holds these as a separate data set.
Description: Half life in human liver microsomes
Data set [4] is described as follows: in vitro. The following applies: human, liver microsomes. This is another data set of the same source.
Description: Intrinsic clearance in human liver measured from intrinsic clearance in human liver microsomes
Data set [5] deals with Escherichia coli. The data set can be described thus: Growth inhibition of Escherichia coli DH5[alpha]. It is filed as organism-based. The following applies: in vivo.
For a further data set, the system named is Vero. The data set can be described thus: Cytotoxicity against African green monkey Vero cells by microplate alamar blue assay. Type of data set: cell-based. The following applies: Chlorocebus sabaeus.
Data set [6] relates to Mycobacterium tuberculosis. Kind of data set: Antitubercular activity against Mycobacterium tuberculosis H37Rv exposed to serially diluted serum from 100 mg/kg, po treated BALB/c mouse assessed as reduction in bacterial growth measured after 7 days by microplate alamar blue assay. It is filed as functional, organism-based.
Another data set deals with Bacillus subtilis. Kind of data set: Growth inhibition of Bacillus subtilis 168. It is filed as organism-based, subsp. subtilis str. 168.
The subject of data set [7] is Escherichia coli. The data set can be described thus: Growth inhibition of Escherichia coli AB1157. Type of data set: organism-based. The following applies: in vivo.
Data set [8] has as its system Mycobacterium tuberculosis. The data set can be described thus: Antitubercular activity against Mycobacterium tuberculosis H37Rv exposed to 1:1024 diluted serum from 50 mg/kg, po treated BALB/c mouse assessed as reduction in bacterial growth measured after 7 days by microplate alamar blue assay. Type of data set: functional, organism-based.
For the next data set, the system named is HEK293. The data set can be described thus: Cytotoxicity against HEK293 cells measured after 48 hrs by CellTiter 96 AQueous One Solution Cell Proliferation assay. It is filed as cell-based. The following applies: Homo sapiens, HEK293, 48 h.
The next data set has as its system HFL1. The data set can be described thus: Cytotoxicity against HFL1 cells measured after 48 hrs by CellTiter 96 AQueous One Solution Cell Proliferation assay. The following applies: Homo sapiens, HFL1, 48 h. Type of data set: cell-based.
The subject of a further data set is MRC5. The data set can be described thus: Cytotoxicity against human MRC5 cells measured after 48 hrs by CellTiter 96 AQueous One Solution Cell Proliferation assay. The following applies: MRC5, 48 h. Type of data set: cell-based.
A short description of data set [9]: Cytotoxicity against human QSG7701 cells measured after 48 hrs by CellTiter 96 AQueous One Solution Cell Proliferation assay. It is filed as cell-based. The following applies: QSG7701, 48 h.
Data set [10] can be described thus: Selectivity index, ratio of IC50 for African green monkey Vero cells to MIC=. Type of data set: toxicity. The following applies: read-out: Ratio IC50.
The subject of data set [11] is Mycobacterium tuberculosis. Kind of data set: Antitubercular activity against Mycobacterium tuberculosis H37Rv after 6 days by resazurin dye based fluorescence assay. The following applies: 144 h.
Data set [12] deals with Mycobacterium tuberculosis. The data set can be described thus: Antitubercular activity against Mycobacterium tuberculosis H37Rv exposed to serially diluted serum from 10 mg/kg, po treated BALB/c mouse assessed as reduction in bacterial growth measured after 7 days by microplate alamar blue assay. It is filed as functional, organism-based.
For a further data set, the system named is Staphylococcus aureus. The data set can be described thus: Growth inhibition of Staphylococcus aureus Newman. It is filed as organism-based. The following applies: in vivo.
In data set [13] the test system is Mycobacterium tuberculosis. The data set can be described thus: Bactericidal activity against Mycobacterium tuberculosis H37Rv assessed as reduction in colony forming units incubated for 14 days followed by replating on 7H11 agar plates and measured by broth dilution method. Type of data set: functional.
In data set [14] the test system is Mycobacterium tuberculosis. The data set can be described thus: Antitubercular activity against Mycobacterium tuberculosis H37Rv measured after 7 days under aerobic condition by resazurin dye based assay. It is filed as functional. The following applies: 168 h.
The test system of data set [15] is Mycobacterium tuberculosis. Kind of data set: Antitubercular activity against Mycobacterium tuberculosis H37Rv. Type of data set: functional.
For data set [16], the system named is Mycobacterium tuberculosis. Kind of data set: Antitubercular activity against Mycobacterium tuberculosis H37Rv by microdilution method. It is filed as functional.
Data set [17] deals with Mycobacterium tuberculosis. The data set can be described thus: Antitubercular activity against Mycobacterium tuberculosis H37Rv measured after 7 days by alamar blue assay. Type of data set: functional. The following applies: 168 h.

Take `O=c1oc2ccccc2c2oc3ccc(O)c(CN4CCCCC4)c3c12`: the share remaining at 1 h in the data set “in vitro [1]” is 14.5%. For the same compound, the intrinsic clearance (CLint scaled) in the data set “in vitro [2]” was determined as 64.9 mL/min/kg; in “in vitro [4]”, 58.4 mL/min/kg. In addition, the half-life in “in vitro [3]” was found to be 21.4 min.
`CC(C)(C)c1cc(O)c(CN2CCCCC2)c2c1oc1c3ccc(O)cc3oc(=O)c12`: the MIC in the data set on Escherichia coli [5], against Bacillus subtilis and with Escherichia coli [7] was over 25 µg/mL throughout. The IC50 in the data set on Vero is 8 µg/mL (≈ 19 µM); in the data set on HEK293 it was 33.6 µM; in the data set with HFL1 it was 22.3 µM; in the data set on MRC5, 30.6 µM; in [9], 34.1 µM. Besides, the outcome in data set [6] was Active. For the same compound, the outcome in data set [8] was inactive. In addition, the selectivity ratio in data set [10] was 2048.
In “in vitro [1]”, `CCOC(=O)c1c(-c2ccccc2)oc2ccc(O)c(CN3CCCCC3)c12` registered a share remaining at 1 h of 46.6%. In addition, the intrinsic metabolic clearance (CLint scaled) in the data set “in vitro [2]” was determined as 26.2 mL/min/kg; in “in vitro [4]”, 23.6 mL/min/kg. The compound further displayed a half-life in “in vitro [3]” of 53 min.
Turning to `CNC(=O)c1c(-c2ccc(O)cc2)oc2ccc(O)c(CN3CCCCC3)c12`, the outcome in data set [6] was Active. In data set [11], the MIC came to 0.0313 µg/mL (≈ 0.0823 µM).
On to `CC(C)(C)c1cc(O)c(CN2CCCCC2)c2c1oc1c3cc(O)ccc3oc(=O)c12`, for which the half-maximal inhibitory concentration (IC50) in the data set on Vero is 8 µg/mL (≈ 19 µM). Further, the selectivity ratio in [10] was 64.
Turning to `CC(C)(C)c1cc(O)c(CN2CCCCC2)c2c1oc1c3ccccc3oc(=O)c12`, the IC50 in the data set on Vero is 16 µg/mL (≈ 39.5 µM). For the same compound, the selectivity ratio in [10] was in the range of 128 to 256.
In the data set with Vero, `O=c1oc2ccc(O)cc2c2oc3ccc(O)c(CN4CCCCC4)c3c12` yielded a 50% inhibitory concentration (IC50) of 4 µg/mL (≈ 10.9 µM). The selectivity ratio in [10] was found to be 8.
With `NNC(=O)c1ccncc1`, in [12], the outcome was Active.
In turn, `O=c1oc2ccccc2c2oc3ccc(O)c(CN4CCCC4)c3c12` came in with an IC50 with Vero of 8 µg/mL (≈ 23.9 µM). In addition, in data set [10], the selectivity ratio was 16.
In the data set “in vitro [3]”, `O=C(O)Cc1ccccc1Nc1c(Cl)cccc1Cl` [DICLOFENAC] yielded a half-life of 11.9 min. Besides, the CLint scaled in the data set “in vitro [4]” was 105 mL/min/kg.
`CN[C@H](CC(C)C)C(=O)N[C@H]1C(=O)N[C@@H](CC(N)=O)C(=O)N[C@H]2C(=O)N[C@H]3C(=O)N[C@H](C(=O)N[C@H](C(=O)O)c4cc(O)cc(O)c4-c4cc3ccc4O)[C@H](O)c3ccc(c(Cl)c3)Oc3cc2cc(c3O[C@@H]2O[C@H](CO)[C@@H](O)[C@H](O)[C@H]2O[C@H]2C[C@](C)(N)[C@H](O)[C@H](C)O2)Oc2ccc(cc2Cl)[C@H]1O` [VANCOMYCIN]: the MIC against Escherichia coli [5], in the data set on Bacillus subtilis and against Escherichia coli [7] was over 25 µg/mL each time.
In “in vitro [1]”, `C[C@]12CC[C@H]3[C@@H](CCC4=CC(=O)CC[C@@]43C)[C@@H]1CC[C@@H]2O` [TESTOSTERONE] registered an amount remaining at 1 h of 12.5%. The compound further displayed an intrinsic metabolic clearance (CLint scaled) in the data set “in vitro [4]” of 62.8 mL/min/kg.
In the case of `CN(C)[C@@H]1C(O)=C(C(N)=O)C(=O)[C@@]2(O)C(O)=C3C(=O)c4c(O)cccc4[C@@](C)(O)[C@H]3C[C@@H]12` [TETRACYCLINE], the MIC against Bacillus subtilis was over 25 µg/mL.
Regarding `O=c1oc2cc(O)ccc2c2oc3ccc(O)c(CN4CCCCC4)c3c12`, the MIC in the data set with Escherichia coli [5], against Bacillus subtilis, against Escherichia coli [7] and in the data set with Staphylococcus aureus was over 25 µg/mL in each case. The IC50 in the data set on Vero is 4 µg/mL (≈ 10.9 µM); with HEK293 it was over 50 µM; with HFL1, over 50 µM; with MRC5, over 50 µM; in [9] it was 40.1 µM. Moreover, in the data set “in vitro [1]”, the share remaining at 1 h is 73.6%. For the same compound, the outcome in data set [8] was Active. For the same compound, the selectivity ratio in data set [10] is 1024. Further, the MBC99 in data set [13] is 0.0039 to 0.0078 µg/mL.
In the data set on Vero, `Cc1cc(O)c(CN2CCCCC2)c2c1oc1c3ccccc3oc(=O)c12` came in with a concentration for half-maximal inhibition (IC50) of 8 µg/mL (≈ 22 µM). In data set [10], the selectivity ratio was 64.
`C=CCCCCCCC[C@H]1C(=O)O[C@@H]1CCCCCNC(=O)c1ccc(N(C)C)cc1` yielded an MIC in data set [14] of 0.68 µg/mL (≈ 1.59 µM).
`CCOC(=O)c1c(-c2ccccc2)oc2ccc(O)c(CN3CCC(C)CC3)c12` displayed an MIC in [15] of 1 µg/mL (≈ 2.54 µM).
`COC(=O)c1c(NC(=O)c2c(F)c(F)c(F)c(F)c2F)sc2c1CCCCC2`: the MIC in [16] stood at 1 µM (≈ 0.419 µg/mL).
Take `CC1CCN(Cc2c(O)ccc3oc4c5ccccc5oc(=O)c4c23)CC1`: the IC50 with Vero worked out at 16 µg/mL (≈ 44 µM). Besides, the selectivity ratio in [10] was determined as 32.
Turning to `CC1CCCCN1Cc1c(O)ccc2oc3c4ccccc4oc(=O)c3c12` (centres undefined), in the data set on Vero, the half-inhibitory concentration (IC50) came to 16 µg/mL (≈ 44 µM). In addition, the selectivity ratio in data set [10] was 16.
As for `CCOC(=O)c1c(-c2ccc(O)cc2)oc2ccc(O)c(CN3CCCCC3)c12`, in the data set “in vitro [1]”, the fraction remaining at 1 h worked out at 10.8%. The same compound displayed an intrinsic clearance (CLint scaled) in “in vitro [4]” of 66.3 mL/min/kg.
For `CCOC(=O)C1=C(NC(=O)c2c(F)c(F)c(F)c(F)c2F)SC2CN(CC)CCC12` (centres undefined), in data set [17], the MIC is 0.23 µM (≈ 0.104 µg/mL).
With `CCOC(=O)c1c(NC(=O)c2c(F)c(F)c(F)c(F)c2F)sc(C(N)=O)c1C`, in data set [16], the MIC was 0.5 µM (≈ 0.211 µg/mL).
